Assay results published in patent US7989654B2, “High purity bases of 3,3-diphenylpropylamino monoesters” (UCB Pharma GmbH, priority 2003, dated 2011).

Assays:
[1] = Storage stability of fesoterodine base as oil and in polymer matrices; type: physicochemical; settings: storage for 6 months at 5° C.
Procedure: While, for example, the free base of fesoterodine is decomposed as an oil after storage for 6 months at 5° C. to around 3-4%, a drop in concentration cannot be established or only established essentially to a lesser extent when fesoterodine is incorporated in matrices, which contain polar components. [table]

[2] = Stirring of fesoterodine base under distilled water, TLC of the aqueous phase; type: physicochemical; settings: covered with distilled water, stirred two days at room temperature
Procedure: Fesoterodine (107.7 mg (R)-2-(3-Diisopropylamino-1-phenylpropyl)-4-hydroxymethylphenyl isobutyric acid ester, B) is covered with a layer distilled water and stirred at room temperature. After two days of stirring, the reaction batch remains unchanged two-phase.

Decomposition during storage as an oil [1]: 3-4%
Structure (SMILES): CC(C)C(=O)Oc1ccc(CO)cc1[C@H](CCN(C(C)C)C(C)C)c1ccccc1 [free base of fesoterodine, (R)-2-[3-(1,1-diisopropylamino)-1-phenylpropyl]-4-(hydroxymethyl)phenyl isobutyrate]
Organic material detectable in the aqueous phase by thin layer chromatography [2]: No organic material (B or E) could be detected
